The values below come from patent US10150758B2, “PRMT5 inhibitors and uses thereof” (Epizyme, Inc., priority 2012, dated 2018).

Sequence of PRMT5/MEP50 (O14744 other isoform, or with tags, fused parts or gaps): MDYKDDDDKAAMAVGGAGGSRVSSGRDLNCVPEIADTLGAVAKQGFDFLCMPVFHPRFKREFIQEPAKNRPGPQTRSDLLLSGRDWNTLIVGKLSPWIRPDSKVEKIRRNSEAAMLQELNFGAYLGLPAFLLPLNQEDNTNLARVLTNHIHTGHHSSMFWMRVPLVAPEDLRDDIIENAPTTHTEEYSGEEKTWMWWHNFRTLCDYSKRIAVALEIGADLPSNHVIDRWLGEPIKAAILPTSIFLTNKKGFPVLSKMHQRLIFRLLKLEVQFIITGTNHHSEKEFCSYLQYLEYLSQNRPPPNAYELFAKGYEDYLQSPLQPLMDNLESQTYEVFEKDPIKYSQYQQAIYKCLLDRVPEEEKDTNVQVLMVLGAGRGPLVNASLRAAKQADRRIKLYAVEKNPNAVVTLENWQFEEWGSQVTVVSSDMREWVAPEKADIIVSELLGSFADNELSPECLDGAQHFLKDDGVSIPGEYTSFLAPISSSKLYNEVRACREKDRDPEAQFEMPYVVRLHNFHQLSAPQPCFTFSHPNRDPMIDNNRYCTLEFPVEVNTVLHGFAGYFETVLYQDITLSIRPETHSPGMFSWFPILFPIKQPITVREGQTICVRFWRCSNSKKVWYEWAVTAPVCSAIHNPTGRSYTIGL
Sequence of PRMT5/MEP50 (Q9BQA1 other isoform, or with tags, fused parts or gaps partner): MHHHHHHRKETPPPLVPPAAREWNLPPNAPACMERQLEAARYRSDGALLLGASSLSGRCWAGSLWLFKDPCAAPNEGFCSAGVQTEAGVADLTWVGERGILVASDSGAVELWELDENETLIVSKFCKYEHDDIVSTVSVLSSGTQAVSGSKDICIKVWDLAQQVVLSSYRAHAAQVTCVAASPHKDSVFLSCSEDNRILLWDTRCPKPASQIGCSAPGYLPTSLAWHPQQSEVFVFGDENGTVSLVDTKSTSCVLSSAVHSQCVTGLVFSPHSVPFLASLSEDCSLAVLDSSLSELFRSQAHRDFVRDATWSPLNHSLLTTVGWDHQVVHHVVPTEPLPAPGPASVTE

The test system of one experiment is symmetric di-methyl arginine in Z-138 cells. Kind of experiment: Z-138 Methylation Assay (In Cell Western for symmetric di-methyl arginine and DNA content). The class given is cell-based. The note with it: Homo sapiens, 96 hours incubation, read-out: ICW EC50. The source says:
[formula] [formula] Where top and bottom are the normally allowed to float, but may be fixed at 100 or 0 respectively in a 3-parameter fit. The Hill Coefficient normally allowed to float but may also be fixed at 1 in a 3-parameter fit. Y is the % inhibition and X is the compound concentration. Z-138 Methylation Assay
Z-138 suspension cells were purchased from ATCC (American Type Culture Collection, Manassas, Va.). RPMI/Glutamax medium, penicillin-streptomycin, heat inactivated fetal bovine serum, and D-PBS were purchased from Life Technologies, Grand Island, N.Y., USA. Odyssey blocking buffer, 800CW goat anti-rabbit IgG (H+L) antibody, and Licor Odyssey infrared scanner were purchased from Licor Biosciences, Lincoln, Nebr., USA. Symmetric di-methyl arginine antibody was purchased from EMD Millipore, Billerica, Mass., USA. 16% Paraformaldehyde was purchased from Electron Microscopy Sciences, Hatfield, Pa., USA.
Z-138 suspension cells were maintained in growth medium (RPMI 1640 supplemented with 10% v/v heat inactivated fetal bovine serum and 100 units/mL penicillin-streptomycin) and cultured at 37° C. under 5% CO2.
Cell Treatment, in Cell Western (ICW) for Detection of Symmetric Di-Methyl Arginine and DNA Content.
Z-138 cells were seeded in assay medium at a concentration of 50,000 cells per mL to a 384-well cell culture plate with 50 μL per well. Compound (100 nL) from 384 well source plates was added directly to 384 well cell plate. Plates were incubated at 37° C., 5% CO2 for 96 hours. After four days of incubation, 40 μL of cells from incubated plates were added to poly-D-lysine coated 384 well culture plates (BD Biosciences 356697). Plates were incubated at room temperature for 30 minutes then incubated at 37° C., 5% CO2 for 5 hours. After the incubation, 40 μL per well of 8% paraformaldehyde in PBS (16% paraformaldahyde was diluted to 8% in PBS) was added to each plate and incubated for 30 minutes. Plates were transferred to a Biotek 405 plate washer and washed 5 times with 100 μL per well of wash buffer (1×PBS with 0.1% Triton X-100 (v/v)). Next 30 μL per well of Odyssey blocking buffer were added to each plate and incubated 1 hour at room temperature. Blocking buffer was removed and 20 μL per well of primary antibody was added (symmetric di-methyl arginine diluted 1:100 in Odyssey buffer with 0.1% Tween 20 (v/v)) and plates were incubated overnight (16 hours) at 4° C. Plates were washed 5 times with 100 μL per well of wash buffer. Next 20 μL per well of secondary antibody was added (1:200 800CW goat anti-rabbit IgG (H+L) antibody, 1:1000 DRAQ5 (Biostatus limited) in Odyssey buffer with 0.1% Tween 20 (v/v)) and incubated for 1 hour at room temperature. The plates were washed 5 times with 100 μL per well wash buffer then 1 time with 100 μL per well of water. Plates were allowed to dry at room temperature then imaged on the Licor Odyssey machine which measures integrated intensity at 700 nm and 800 nm wavelengths. Both 700 and 800 channels were scanned.
First, the ratio for each well was determined by:
Each plate included fourteen control wells of DMSO only treatment (minimum inhibition) as well as fourteen control wells for maximum inhibition treated with 3 μM of a reference compound (Background wells). The average of the ratio values for each control type was calculated and used to determine the percent inhibition for each test well in the plate. Reference compound was serially diluted three-fold in DMSO for a total of nine test concentrations, beginning at 3 μM. Percent inhibition was determined and IC50 curves were generated using triplicate wells per concentration of compound.
For orientation: EC50 means the concentration needed to bring the measured effect to its halfway point. For `O=c1cc(-c2ccccc2)ccn1C[C@H](O)CN1CCc2ccccc2C1` [Compound 13], the EC50 was greater than 50 µM.

In the case of `Cc1ccccc1N1CCN(CC(O)CN2CCc3ccccc3C2)C(=O)C1` (stereo not shown) [Compound 10], the EC50 was greater than 50 µM.

In the case of `O=C1CN(c2cccc(Cl)c2)CCN1CC(O)CN1CCc2ccccc2C1` (stereo not shown) [Compound 5, 4-(3-chlorophenyl)-1-(3-(3,4-dihydroisoquinolin-2(1H)-yl)-2-hydroxypropyl)piperazin-2-one], the concentration giving a half-maximal response (EC50) was 1 to 10 µM.

Regarding `O=C1CN(c2ccccc2F)CCN1CC(O)CN1CCc2ccccc2C1` (stereo not shown) [Compound 11, 1-(3-(3,4-dihydroisoquinolin-2(1H)-yl)-2-hydroxypropyl)-4-(2-fluorophenyl)piperazin-2-one], the concentration for a half-maximal effect (EC50) was greater than 50 µM.

On to `O=c1cc(-c2ccccc2)ccn1C[C@@H](O)CN1CCc2ccccc2C1` [Compound 14], for which the EC50 was greater than 50 µM.

In the case of `O=C1CN(c2ccc(CO)cc2)CCN1CC(O)CN1CCc2ccccc2C1` (stereo not shown) [Compound 20], the EC50 lay within 1 to 10 µM.

For `O=C(NC1CCOCC1)c1ccn(CC(O)CN2CCc3ccccc3C2)c(=O)c1` (stereo not shown) [Compound 33], the EC50 was 1 to 10 µM.

A further experiment deals with Z-138 cells. Kind of experiment: Z-138 Proliferation Assay (Cell Titer Glo). The class given is cell-based. Particulars: Homo sapiens, 120 h, 5 days, top concentration 20 μM. The text has this: [formula] Z-138 Proliferation Assay
Z-138 suspension cells were purchased from ATCC (American Type Culture Collection, Manassas, Va.). RPMI/Glutamax medium, penicillin-streptomycin, heat inactivated fetal bovine serum were purchased from Life Technologies, Grand Island, N.Y., USA. V-bottom polypropylene 384-well plates were purchased from Greiner Bio-One, Monroe, N.C., USA. Cell culture 384-well white opaque plates were purchased from Perkin Elmer, Waltham, Mass., USA. Cell-Titer Glo® was purchased from Promega Corporation, Madison, Wis., USA. SpectraMax M5 plate reader was purchased from Molecular Devices LLC, Sunnyvale, Calif., USA.
Z-138 suspension cells were maintained in growth medium (RPMI 1640 supplemented with 10% v/v heat inactivated fetal bovine serum and cultured at 37° C. under 5% CO2. Under assay conditions, cells were incubated in assay medium (RPMI 1640 supplemented with 10% v/v heat inactivated fetal bovine serum and 100 units/mL penicillin-streptomycin) at 37° C. under 5% CO2.
For the assessment of the effect of compounds on the proliferation of the Z-138 cell line, exponentially growing cells were plated in 384-well white opaque plates at a density of 10,000 cells/ml in a final volume of 50 μl of assay medium. A compound source plate was prepared by performing triplicate nine-point 3-fold serial dilutions in DMSO, beginning at 10 mM (final top concentration of compound in the assay was 20 μM and the DMSO was 0.2%). A 100 nL aliquot from the compound stock plate was added to its respective well in the cell plate. […] After addition of compounds, assay plates were incubated for 5 days at 37° C., 5% CO2, relative humidity >90%. Cell viability was measured by quantitation of ATP present in the cell cultures, adding 35 μl of Cell Titer Glo® reagent to the cell plates. Luminescence was read in the SpectraMax M5 microplate reader. The concentration of compound inhibiting cell viability by 50% was determined using a 4-parametric fit of the normalized dose response curves.
A general note: In ATP-based viability assays light output follows the ATP content of the culture.
Turning to `O=C(NC1CCOCC1)c1ccn(CC(O)CN2CCc3ccccc3C2)c(=O)c1` (stereo not shown) [Compound 33], the EC50 was greater than 20 µM.

A further experiment concerns the target PRMT5/MEP50 (Homo sapiens (Human), UniProt O14744). Kind of experiment: PRMT5 Biochemical Assay (PRMT5/MEP50 enzyme assay on peptide substrate, 3H-SAM Flashplate). Particulars: PRMT5/MEP50 4 nM, 3H-SAM 75 nM, peptide 40 nM. The source says:
S-adenosylmethionine (SAM), S-adenosylhomocysteine (SAH), bicine, KCl, Tween20, dimethylsulfoxide (DMSO), bovine skin gelatin (BSG), and Tris(2-carboxyethyl)phosphine hydrochloride solution (TCEP) were purchased from Sigma-Aldrich at the highest level of purity possible. ^3H-SAM was purchase from American Radiolabeled Chemicals with a specific activity of 80 Ci/mmol. 384-well streptavidin Flashplates were purchased from PerkinElmer.
Peptide representative of human histone H4 residues 1-15 was synthesized with a C-terminal linker-affinity tag motif and a C-terminal amide cap by 21st Century Biochemicals. The peptide was high high-perfomance liquid chromatography (HPLC) purified to greater than 95% purity and confirmed by liquid chromatography mass spectrometry (LC-MS). The sequence was Ac-[…][K-Biot]-amide (SEQ ID NO.:3).
Full-length human PRMT5 (NM_006109.3) transcript variant 1 clone was amplified from a fetal brain cDNA library, incorporating flanking 5′ sequence encoding a FLAG tag ([…]) (SEQ ID NO.:4) fused directly to Ala 2 of PRMT5. Full-length human MEP50 (NM_024102) clone was amplified from a human testis cDNA library incorporating a 5′ sequence encoding a 6-histidine tag (MHHHHHH) (SEQ ID NO.:5) fused directly to Arg 2 of MEP50. The amplified genes were sublconed into pENTR/D/TEV (Life Technologies) and subsequently transferred by Gateway™ attL×attR recombination to pDEST8 baculvirus expression vector (Life Technologies).
Recombinant baculovirus and Baculovirus-Infected Insect Cells (BIIC) were generated according to Bac-to-Bac kit instructions (Life Technologies) and Wasilko, 2006, respectively. Protein over-expression was accomplished by infecting exponentially growing Spodoptera frugiperda (SF9) cell culture at 1.2×10^6 cell/ml with a 5000 fold dilution of BIIC stock. Infections were carried out at 27° C. for 72 hours, harvested by centrifugation, and stored at −80° C. for purification.
Flag-PRMT5/6His-MeP50 was eluted with 300 mM Imidazole in the same buffer. The purity of recovered protein was 87%. Reference: Wasilko, D. J. and S. E. Lee: “TIPS: titerless infected-cells preservation and scale-up” Bioprocess J., 5 (2006), pp. 29-32.
General Procedure for PRMT5/MEP50 Enzyme Assays on Peptide Substrates.
The assays were all performed in a buffer consisting of 20 mM Bicine (pH=7.6), 1 mM TCEP, 0.005% BSG, and 0.002% Tween20, prepared on the day of use. Compounds in 100% DMSO (1 ul) were spotted into a polypropylene 384-well V-bottom plates (Greiner) using a Platemate Plus outfitted with a 384-channel head (Thermo Scientific). DMSO (1 ul) was added to Columns 11, 12, 23, 24, rows A-H for the maximum signal control and 1 ul of SAH, a known product and inhibitor of PRMT5/MEP50, was added to columns 11, 12, 23, 24, rows I-P for the minimum signal control. A cocktail (40 ul) containing the PRMT5/MEP50 enzyme and the peptide was added by Multidrop Combi (Thermo-Fisher). The compounds were allowed to incubate with PRMT5/MEP50 for 30 min at 25 degrees Celsius, then a cocktail (10 ul) containing ^3H-SAM was added to initiate the reaction (final volume=51 ul). The final concentrations of the components were as follows: PRMT5/MEP50 was 4 nM, ^3H-SAM was 75 nM, peptide was 40 nM, SAH in the minimum signal control wells was 100 uM, and the DMSO concentration was 1%. The assays were stopped by the addition of non-radioactive SAM (10 ul) to a final concentration of 600 uM, which dilutes the ^3H-SAM to a level where its incorporation into the peptide substrate is no longer detectable. 50 ul of the reaction in the 384-well polypropylene plate was then transferred to a 384-well Flashplate and the biotinylated peptides were allowed to bind to the streptavidin surface for at least 1 hour before being washed three times with 0.1% Tween20 in a Biotek ELx405 plate washer. […]
Broadly, the IC50 is the concentration needed to halve the response being measured. Turning to `O=C1CN(C2CCOCC2)CCN1CC(O)CN1CCc2ccccc2C1` (stereo not shown) [Compound 23], the 50% inhibitory concentration (IC50) fell in the range of 1 to 10 µM.

For `CN1CCN(CC(O)CN2CCc3ccccc3C2)C(=O)C1` (stereo not shown) [Compound 27], the concentration for half-maximal inhibition (IC50) is greater than 50 µM.

For `O=C1COCCN1CC(O)CN1CCc2ccccc2C1` (stereo not shown) [Compound 28], the IC50 lay within 1 to 10 µM.

For `O=C1CC(c2ccccc2)CCN1C[C@H](O)CN1CCc2ccccc2C1` (stereo partly shown) [Compound 16], the IC50 fell in the range of 1 to 10 µM.

Regarding `O=C(NC1CCOCC1)C1CC(=O)N(CC(O)CN2CCc3ccccc3C2)C1` (stereo not shown) [Compound 32], the IC50 is greater than 10 µM.

For the compound `Cc1cccc(N2CCN(CC(O)CN3CCc4ccccc4C3)C(=O)C2)c1` (stereo not shown) [Compound 3, 1-(3-(3,4-dihydroisoquinolin-2(1H)-yl)-2-hydroxypropyl)-4-(m-tolyl)piperazin-2-one], the IC50 was 10 to 50 µM.

With `CS(=O)(=O)N1CCN(CC(O)CN2CCc3ccccc3C2)C(=O)C1` (stereo not shown) [Compound 22], the IC50 lay in the range of 1 to 10 µM.

Regarding `CC(=O)N1CCN(CC(O)CN2CCc3ccccc3C2)C(=O)C1` (stereo not shown) [Compound 21], the IC50 lay in the range of 1 to 10 µM.

For the compound `O=C1CN(Cc2ccccc2)CCN1CC(O)CN1CCc2ccccc2C1` (stereo not shown) [Compound 24], the IC50 lay within 1 to 10 µM.

Turning to `O=C1CN(c2cccc(Cl)c2)CCN1CC(O)CN1CCc2ccccc2C1` (stereo not shown) [Compound 5, 4-(3-chlorophenyl)-1-(3-(3,4-dihydroisoquinolin-2(1H)-yl)-2-hydroxypropyl)piperazin-2-one], the IC50 was less than 0.1 µM.

On to `O=C1CC(c2ccccc2)CCN1C[C@@H](O)CN1CCc2ccccc2C1` (stereo partly shown) [Compound 17], for which the IC50 lay within 1 to 10 µM.

`O=C1CN(Cc2ccccn2)CCN1CC(O)CN1CCc2ccccc2C1` (stereo not shown) [Compound 25]: the IC50 lay in the range of 1 to 10 µM.

With `O=c1cccc(CC(O)CN2CCc3ccccc3C2)[nH]1` (stereo not shown) [Compound 2], the half-maximal inhibitory concentration (IC50) lay within 10 to 50 µM.

Take `O=C1CN(c2ccc(CO)cc2)CCN1CC(O)CN1CCc2ccccc2C1` (stereo not shown) [Compound 20]: the IC50 was in the range of 0.101 to 1 µM.

Turning to `CN(C)c1ccc(N2CCN(C[C@H](O)CN3CCc4ccccc4C3)C(=O)C2)cc1` [Compound 30], the IC50 fell in the range of 1 to 10 µM.

Consider `O=c1cc(Nc2ccccc2)ccn1C[C@H](O)CN1CCc2ccccc2C1` [Compound 18], for which the IC50 was 1 to 10 µM.

`O=C1CN(Cc2cccnc2)CCN1CC(O)CN1CCc2ccccc2C1` (stereo not shown) [Compound 26]: the 50% inhibitory concentration (IC50) is 1 to 10 µM.
